From the METLIN SMRT retention time set (Domingo-Almenara et al. 2019)

Assay: gradient 5% acetonitrile 3 min, to 50% in 2 min, to 85% in 15 min, held 3 min, 100 µL/min
Conditions: column: Zorbax Extend-C18 2.1 x 50 mm; eluents: water / acetonitrile, 0.1% formic acid
In short: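 Using water and acetonitrile that each contained 0.1% formic acid, mixtures of ~100 pure standards were separated at 100 μL/min on a Zorbax Extend-C18 column (2.1 × 50 mm, 1.8 μm). The HPLC fed a quadrupole time-of-flight mass spectrometer working in positive and negative ionization mode, with dead and dwell volumes of 40 μL and 900 μL. Data were acquired over 3 months. Retention time was read from computationally picked adduct peaks after manual inspection of each.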

RP-LC retention time [s] | SMILES
887 | C=CCN1C(=O)COc2ccc(-c3nc(NC(=O)C4CC4)sc3C)cc21
608 | Cc1cnc(C2CN(C(=O)c3cccn3C)C2)n1CC1CC1
652 | O=C(NCc1cscn1)C1CCN(S(=O)(=O)c2cccs2)CC1
811 | CC1=C(c2ccccc2)S(=O)(=O)N=C1N1CCCN(C(=O)c2ccccc2Cl)CC1
632 | O=C(NCc1ccco1)C1CCN(c2cc(N3CCCCC3)ncn2)CC1
892 | O=C(Nc1ccccc1)c1cnc(-c2ccc(F)cc2)nc1-c1ccncc1
760 | COc1cccc(NC(=O)C2CCN(S(=O)(=O)c3cc(C(=O)N(C)C)cs3)CC2)c1
604 | Cn1cnc2cc(CNC(=O)CCc3ccccc3)ccc21
758 | O=C1CCC2(CCN1)CCN(S(=O)(=O)c1ccc(Cl)cc1)CC2
1160 | Cc1ccc(-c2nnc(-c3nn(C)c4c3CN(S(=O)(=O)c3ccc(C(C)C)cc3)CC4)o2)cc1
1310 | CC(C)CC(=O)Nc1ccc(-c2nc(-c3ccc(Cl)cc3)no2)cc1
1110 | O=C(CSc1nc2ccccc2s1)Nc1cccn2cc(-c3ccccc3)nc12
700 | O=C(NCCc1noc(C2CC2)n1)c1cccs1
700 | CC(=O)NS(=O)(=O)c1ccc2sc(C)nc2c1
890 | CCC(=O)n1nc(-c2cccc(C)c2)nc1N
911 | Cc1ccc(Cl)cc1NC(=O)N1CCC(n2cnc3c(C)cccc3c2=O)CC1
907 | O=C(NCCOc1cccc(C(F)(F)F)c1)c1ccccc1Cl
587 | Cc1cc2c(cc1S(=O)(=O)N(C)CC(=O)N1CCN(c3ccccn3)CC1)OC(C)C(=O)N2 (stereo unspecified)
648 | CC(C)CC(NC(=O)[C@H]1CCCN1C(=O)OCc1ccccc1)C(=O)NCC(=O)NO (stereo partly specified)
863 | COC(=O)c1ccccc1NC(=O)Cn1nc2nc(N3CCCC(C)C3)ccn2c1=O (stereo unspecified)
901 | O=C(Cn1c(=O)c2cccn2c2ccccc21)Nc1ccc(Cl)cc1
624 | CCNc1cc(N2CCCC(CCC(=O)N3CCN(c4ncccn4)CC3)C2)ncn1 (stereo unspecified)

RP-LC retention time [s] | SMILES
620 | O=C(c1csc(S(=O)(=O)N2CCC(C(=O)N3CCOCC3)CC2)c1)N1CCOCC1
592 | Nc1nc(N2CCCC2)nc2ccccc12
791 | Cc1ccc(N2CCN(Cc3nc(-c4ccc(N5CCOCC5)nc4)no3)CC2)cc1
574 | O=S(=O)(NCCc1ccccn1)c1ccc2ccccc2c1
680 | O=S(=O)(NCC1CCCO1)c1cccc2cccnc12 (stereo unspecified)
584 | Cc1ccc2cc(CCC(=O)NCCCN3CCCCC3)c(=O)[nH]c2c1
949 | O=C(c1cccs1)N1CCN(c2ccc(-c3noc(C4CC4)n3)cc2)CC1
1100 | COc1ccc(-c2ncc3c(n2)CCN(S(=O)(=O)c2ccc(Cl)cc2)C3)cc1
605 | COc1nn(C)cc1C(=O)NCCn1nc(-c2cccs2)ccc1=O
687 | CCn1c(=O)oc2cc(S(=O)(=O)N3CCN(C(=O)c4ccnn4C)CC3)ccc21
870 | CCOc1ccccc1NC(=O)C1CCN(S(=O)(=O)c2ccc3[nH]c(=O)sc3c2)CC1
585 | Cc1ccc(C(=O)N2CCC(Nc3ncnc4c3CCC4)C2)s1 (stereo unspecified)
1150 | O=c1c2cc(-c3cccs3)nn2cnn1Cc1nc(-c2ccc(Cl)cc2)no1
609 | COCC1CN(Cc2cn[nH]c2-c2ccccc2)CCC1(F)F (stereo unspecified)
716 | Cc1ccc(CNC(=O)C2CCN(c3cnc(N4CCCC4)nc3)CC2)cc1C
904 | Cc1c(Cl)cccc1NC(=O)C(C)C1CCN(C(=O)Nc2ccc(F)cc2)CC1 (stereo unspecified)
722 | O=S(=O)(c1ccc(F)cc1)N1CCC2(CC1)NCCN=C2NCc1ccc(Cl)cc1
679 | COCCNCc1c(C(=O)O)c(C)n(Cc2cccc(Cl)c2)c1C
647 | N[C@@H](Cc1cc(CP(=O)(O)O)cc(-c2ccccc2Cl)c1)C(=O)O
644 | CCCCN1CCN(Cc2nc(-c3ccc(N4CCC(C)CC4)nc3)no2)CC1
960 | O=C(Nc1ccc(S(=O)(=O)N2CCc3ccccc32)cc1)c1ccc(Br)o1
1370 | CCCCOc1ccc(-c2nc(C3CC(=O)N(c4ccc(F)c(Cl)c4)C3)no2)cc1 (stereo unspecified)

RP-LC retention time [s] | SMILES
863 | Cc1cccc(OCc2nc(-c3ccc4c(c3)nnn4CCC(=O)N3CCOCC3)no2)c1
1080 | Cc1nn(C)c2nc(OCC(=O)Nc3ccc(Br)cc3F)cc(C(F)(F)F)c12
660 | Cn1cc(CCNC(=O)c2ccccc2Br)c2cccnc21
638 | COCCn1ccc2nc(C)c(C(=O)NCCc3ccco3)cc2c1=O
912 | O=C(CN1C(=O)CCc2cc(Br)ccc21)Nc1ccc2c(c1)OCCO2
670 | Cc1nn(-c2ccccc2)c2nc(N3CCCC(C(=O)NCCN4CCOCC4)C3)sc12 (stereo unspecified)
622 | CC(=O)N1CCC([C@@H]2CN(C(=O)c3ccc(Br)o3)C[C@H]2CO)CC1
913 | CCOc1ccc(NC(=O)c2c(Cl)ccc(Cl)c2OC)cc1
872 | Cc1ccc(NC(=O)C2CC(=O)N(c3cccc(NC(=O)C(C)C)c3)C2)cc1Cl (stereo unspecified)
1020 | O=C(NCc1ccc(F)cc1)C1CCN(S(=O)(=O)c2ccc(-c3noc(C4CC4)n3)cc2)CC1
721 | CCOC(=O)c1csc(NC(=O)c2ccccc2[N+](=O)[O-])n1
829 | Cc1csc(-c2ccc(N3CCN(C(=O)c4nccc5ccccc45)CC3)nc2)n1
615 | Cc1cc(C)nc(Nc2nc3ccccc3[nH]2)n1
864 | Cc1cccc(C)c1NC(=O)Cn1c(=O)n(-c2ccccc2)c(=O)c2c1cc(C)n2C
850 | COc1cc(-n2c(=O)c3ccccc3n(Cc3ccccc3F)c2=O)cc(OC)c1OC
795 | Cc1ccc(-c2ccc3nnc(CCC(=O)NCCCOC(C)C)n3n2)cc1C
750 | O=C([C@@H]1C[C@H](Oc2ccccc2)CN1C(=O)C1CCC1)N1CCCC1
725 | COc1ccc(CC(=O)N2C[C@@H]3C[C@H](NC(=O)c4ccccc4)[C@H]2C3)cc1
907 | CCCNC(=O)c1cnn(-c2ccc(-c3nc(C(C)C)no3)cn2)c1C
912 | Cc1ccc(-n2nc(N3CCCN(S(=O)(=O)Cc4ccccc4)CC3)ccc2=O)cc1C
721 | O=C(NCc1ccc2c(c1)OCO2)c1csc(NS(=O)(=O)c2cccs2)n1

SMILES | RP-LC retention time [s]
C=C(C)CN1CC[C@]23c4c5ccc(O)c4O[C@H]2c2[nH]c4ccccc4c2C[C@@]3(O)[C@H]1C5 | 647
